The target in assay [1] is T1, Voltage-dependent L-type calcium channel subunit alpha-1C (Cavia porcellus, UniProt O35505). Description: (§1) Inhibition of Cav1.2 calcium current measured using whole cell patch clamp in guinea pig ventricular myocytes. In kind it is functional, cell-based, Heart, Ventricular myocyte. On the set-up: ca sol conc 1.8 mM, temp 24-26 C.
Assay [2] concerns the target T1, Voltage-dependent L-type calcium channel subunit alpha-1C. The assay is described as §1. Type of assay: functional, cell-based, Heart, Ventricular myocyte. On the set-up: ca sol conc 1.8 mM.
Assay [3] is described as follows: Inhibition of Cav1.2 calcium current measured using whole cell patch clamp in mouse/rat NG108-15. Set-up: ca sol conc 1.8 mM, temp 20-25 C. In kind it is functional, cell-based.
In assay [4] the target is T2, Voltage-dependent L-type calcium channel subunit alpha-1C (Rattus norvegicus, UniProt P22002). The assay can be described thus: Inhibition of Cav1.2 calcium current measured using whole cell patch clamp in rat atrial myocytes. In kind it is functional, cell-based, Heart, Cardiac Muscle Cell. On the set-up: ca sol conc 2 mM, temp 22-24 C. (Patch clamp records ionic current or voltage across a cell membrane.)
T2 sequence (P22002 whole entry): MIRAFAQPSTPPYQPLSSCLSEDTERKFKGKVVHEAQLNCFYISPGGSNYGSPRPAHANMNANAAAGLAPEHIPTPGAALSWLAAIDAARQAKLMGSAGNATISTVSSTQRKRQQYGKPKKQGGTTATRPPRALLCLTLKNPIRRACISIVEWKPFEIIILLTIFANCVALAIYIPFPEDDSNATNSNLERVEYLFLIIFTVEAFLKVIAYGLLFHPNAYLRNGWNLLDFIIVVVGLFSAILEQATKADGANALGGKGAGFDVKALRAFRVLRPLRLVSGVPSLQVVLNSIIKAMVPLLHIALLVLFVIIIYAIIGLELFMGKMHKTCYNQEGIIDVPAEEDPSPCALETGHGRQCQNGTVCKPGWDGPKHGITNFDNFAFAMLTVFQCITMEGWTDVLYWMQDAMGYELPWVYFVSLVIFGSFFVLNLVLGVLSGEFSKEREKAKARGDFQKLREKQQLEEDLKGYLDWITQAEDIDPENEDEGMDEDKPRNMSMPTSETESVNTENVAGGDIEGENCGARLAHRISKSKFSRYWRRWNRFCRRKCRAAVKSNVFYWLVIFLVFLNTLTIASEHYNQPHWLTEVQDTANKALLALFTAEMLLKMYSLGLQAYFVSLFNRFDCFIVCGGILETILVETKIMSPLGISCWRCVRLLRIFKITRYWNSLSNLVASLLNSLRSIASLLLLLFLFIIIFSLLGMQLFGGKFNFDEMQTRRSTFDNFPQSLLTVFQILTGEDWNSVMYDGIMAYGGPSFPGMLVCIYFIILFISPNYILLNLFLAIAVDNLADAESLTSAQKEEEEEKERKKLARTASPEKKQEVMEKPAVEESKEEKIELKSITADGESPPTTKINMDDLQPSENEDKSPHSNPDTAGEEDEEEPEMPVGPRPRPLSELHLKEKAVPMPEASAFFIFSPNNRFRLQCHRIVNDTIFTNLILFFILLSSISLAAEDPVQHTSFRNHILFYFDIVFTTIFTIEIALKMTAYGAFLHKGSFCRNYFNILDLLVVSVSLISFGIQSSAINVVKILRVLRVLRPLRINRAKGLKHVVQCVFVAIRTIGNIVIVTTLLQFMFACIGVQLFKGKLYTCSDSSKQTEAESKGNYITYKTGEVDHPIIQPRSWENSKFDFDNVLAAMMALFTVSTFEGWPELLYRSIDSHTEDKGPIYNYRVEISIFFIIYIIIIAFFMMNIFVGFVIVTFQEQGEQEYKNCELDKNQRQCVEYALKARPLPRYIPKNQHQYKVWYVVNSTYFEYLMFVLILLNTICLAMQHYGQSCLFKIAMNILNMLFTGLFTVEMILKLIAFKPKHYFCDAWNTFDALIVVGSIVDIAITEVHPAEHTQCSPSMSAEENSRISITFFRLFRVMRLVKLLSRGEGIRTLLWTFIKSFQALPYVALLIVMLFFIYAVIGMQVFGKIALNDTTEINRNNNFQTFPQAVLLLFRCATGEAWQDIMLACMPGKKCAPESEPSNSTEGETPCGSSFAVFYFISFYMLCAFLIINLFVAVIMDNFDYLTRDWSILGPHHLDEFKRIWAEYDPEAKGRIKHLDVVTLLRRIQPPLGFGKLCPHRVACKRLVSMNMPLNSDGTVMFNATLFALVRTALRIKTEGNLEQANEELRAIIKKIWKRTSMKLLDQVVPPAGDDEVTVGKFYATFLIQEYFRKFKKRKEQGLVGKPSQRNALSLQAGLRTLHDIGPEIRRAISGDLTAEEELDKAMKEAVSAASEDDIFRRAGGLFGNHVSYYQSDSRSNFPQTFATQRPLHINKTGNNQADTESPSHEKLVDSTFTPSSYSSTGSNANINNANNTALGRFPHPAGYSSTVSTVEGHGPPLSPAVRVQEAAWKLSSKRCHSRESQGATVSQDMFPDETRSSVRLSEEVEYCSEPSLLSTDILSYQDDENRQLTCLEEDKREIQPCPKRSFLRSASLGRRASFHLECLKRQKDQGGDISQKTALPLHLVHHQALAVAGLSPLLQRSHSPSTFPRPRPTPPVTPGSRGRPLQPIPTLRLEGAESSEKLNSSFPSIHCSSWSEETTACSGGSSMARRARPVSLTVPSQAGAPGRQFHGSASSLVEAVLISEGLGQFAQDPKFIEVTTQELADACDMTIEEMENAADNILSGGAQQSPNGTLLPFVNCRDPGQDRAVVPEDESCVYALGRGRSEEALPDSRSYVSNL

Assay [5] addresses T2, Voltage-dependent L-type calcium channel subunit alpha-1C. The assay can be described thus: Inhibition of Cav1.2 calcium current measured using whole cell patch clamp in rat myocyte. Set-up: ca sol conc 1.8 mM. In kind it is functional, Heart, Cardiac Muscle Cell.
Assay [6] has the same target. Description: (§2) Inhibition of Cav1.2 calcium current measured using FLIPR in rat aortic A7r5 cells. Type of assay: functional, cell-based.
For assay [7], the target named is T1, Voltage-dependent L-type calcium channel subunit alpha-1C. Described as §1. In kind it is functional, cell-based, Heart, Ventricular myocyte. On the set-up: ca sol conc 1.8 mM, temp 19 C.
For assay [8], the target named is T2, Voltage-dependent L-type calcium channel subunit alpha-1C. Description: Inhibition of Cav1.2 calcium current measured using whole cell patch clamp in rat Artery myocytes. Type of assay: functional, cell-based, Tail. Set-up: ca sol conc 5 mM, temp 20-22 C.
The target is the same in assay [9]. Description: Inhibition of Cav1.2 calcium current measured using whole cell patch clamp in rat ventricular myocytess. In kind it is functional, cell-based, Heart, Ventricular myocyte. On the set-up: ca sol conc 1.8 mM, temp 20-22 C.
For assay [10], the target named is L-type calcium channel alpha 1C/beta 2A (Oryctolagus cuniculus, UniProt P15381+P54288). Description: Inhibition of Cav1.2 calcium current measured using whole cell patch clamp in human HEK293 cells transfected with rabbit L-type calcium channel subunits. In kind it is functional, cell-based. On the set-up: ca sol conc 5 mM, temp room.
Assay [11] deals with T1, Voltage-dependent L-type calcium channel subunit alpha-1C. Described as §1. Type of assay: functional, cell-based, Heart, Ventricular myocyte. Set-up: ca sol conc 1.8 mM, temp room.
In assay [12] the target is T3, Voltage-dependent L-type calcium channel subunit alpha-1C (Mus musculus, UniProt Q01815). The assay can be described thus: (§3) Inhibition of Cav1.2 calcium current measured using whole cell patch clamp in mouse ventricular myocytes. In kind it is functional, cell-based, Heart, Ventricular myocyte. On the set-up: ca sol conc 2 mM, temp room.
Assay [13] deals with T2, Voltage-dependent L-type calcium channel subunit alpha-1C. Description: (§4) Inhibition of Cav1.2 calcium current measured using whole cell patch clamp in rat ventricular myocytes. Type of assay: functional, cell-based, Heart, Ventricular myocyte. Set-up: ca sol conc 1.8 mM, temp 25 C.
The target of assay [14] is T3, Voltage-dependent L-type calcium channel subunit alpha-1C. The description is as §3. On the set-up: ca sol conc 2 mM, temp room. Type of assay: functional, cell-based, Heart, Ventricular myocyte. This is another data set of the same source.
The target in assay [15] is T1, Voltage-dependent L-type calcium channel subunit alpha-1C. The description is as §1. On the set-up: ca sol conc 0.5 mM. Type of assay: functional, cell-based, Heart, Ventricular myocyte.
Assay [16] has the same target. Described as §1. In kind it is functional, cell-based, Heart, Ventricular myocyte. Set-up: ca sol conc 1.8 mM, temp 25-27 C.
The target of assay [17] is Voltage-dependent L-type calcium channel subunit alpha-1C (Homo sapiens, UniProt Q13936). The assay can be described thus: Inhibition of Cav1.2 calcium current measured using Voltage-clamp 2-electrode in Xenopous Oocyte transfected with human L-type calcium channel. In kind it is functional, cell-based, Xenopus. On the set-up: ca sol conc 4 - Ba(OH)2 mM, temp 20-22 C.

The target of assay [18] is T1, Voltage-dependent L-type calcium channel subunit alpha-1C. The description is as §1. In kind it is functional, cell-based, Heart, Ventricular myocyte. Set-up: ca sol conc 1.8 mM. The source holds these as a separate data set.
Assay [19] has as its target T2, Voltage-dependent L-type calcium channel subunit alpha-1C. The description is as §2. In kind it is functional, cell-based. The source holds these as a separate data set.
Assay [20] shares this target. The assay is described as §4. In kind it is functional, cell-based, Heart, Ventricular myocyte. On the set-up: ca sol conc 2 mM, temp room.
The target of assay [21] is T3, Voltage-dependent L-type calcium channel subunit alpha-1C. The assay is described as §3. Type of assay: functional, cell-based, Heart, Ventricular myocyte. On the set-up: ca sol conc 1.8 mM, temp room.
In assay [22] the target is T4, Voltage-dependent L-type calcium channel subunit alpha-1C (Oryctolagus cuniculus, UniProt P15381). The assay can be described thus: (§5) Inhibition of Cav1.2 calcium current measured using whole cell patch clamp in rabbit ventricular myocytes. In kind it is functional, cell-based, Heart, Ventricular myocyte. On the set-up: ca sol conc 1.8 mM, temp 23 C.
For assay [23], the target named is T4, Voltage-dependent L-type calcium channel subunit alpha-1C. The description is as §5. Type of assay: functional, cell-based, Heart, Ventricular myocyte. Set-up: ca sol conc 1.8 mM, temp 23 C. The source holds these as a separate data set.
In assay [24] the target is T2, Voltage-dependent L-type calcium channel subunit alpha-1C. The assay is described as §4. In kind it is functional, cell-based, Heart, Ventricular myocyte. On the set-up: ca sol conc 1.8 mM, temp 25-27 C.
The target in assay [25] is T1, Voltage-dependent L-type calcium channel subunit alpha-1C. The description is as §1. In kind it is functional, cell-based, Heart, Ventricular myocyte. Set-up: ca sol conc 1.8 mM, temp 35-36 C.
Assay [26] has the same target. The assay is described as §1. In kind it is functional, cell-based, Heart, Ventricular myocyte. On the set-up: ca sol conc 5 mM, temp 20-22 C.
The target is the same in assay [27]. Described as §1. In kind it is functional, cell-based, Heart, Ventricular myocyte. On the set-up: ca sol conc 5 mM, temp 20-22 C. This is another data set of the same source.

A word on the IC50: it is the concentration needed to halve the response being measured.

T1 sequence (O35505 whole entry): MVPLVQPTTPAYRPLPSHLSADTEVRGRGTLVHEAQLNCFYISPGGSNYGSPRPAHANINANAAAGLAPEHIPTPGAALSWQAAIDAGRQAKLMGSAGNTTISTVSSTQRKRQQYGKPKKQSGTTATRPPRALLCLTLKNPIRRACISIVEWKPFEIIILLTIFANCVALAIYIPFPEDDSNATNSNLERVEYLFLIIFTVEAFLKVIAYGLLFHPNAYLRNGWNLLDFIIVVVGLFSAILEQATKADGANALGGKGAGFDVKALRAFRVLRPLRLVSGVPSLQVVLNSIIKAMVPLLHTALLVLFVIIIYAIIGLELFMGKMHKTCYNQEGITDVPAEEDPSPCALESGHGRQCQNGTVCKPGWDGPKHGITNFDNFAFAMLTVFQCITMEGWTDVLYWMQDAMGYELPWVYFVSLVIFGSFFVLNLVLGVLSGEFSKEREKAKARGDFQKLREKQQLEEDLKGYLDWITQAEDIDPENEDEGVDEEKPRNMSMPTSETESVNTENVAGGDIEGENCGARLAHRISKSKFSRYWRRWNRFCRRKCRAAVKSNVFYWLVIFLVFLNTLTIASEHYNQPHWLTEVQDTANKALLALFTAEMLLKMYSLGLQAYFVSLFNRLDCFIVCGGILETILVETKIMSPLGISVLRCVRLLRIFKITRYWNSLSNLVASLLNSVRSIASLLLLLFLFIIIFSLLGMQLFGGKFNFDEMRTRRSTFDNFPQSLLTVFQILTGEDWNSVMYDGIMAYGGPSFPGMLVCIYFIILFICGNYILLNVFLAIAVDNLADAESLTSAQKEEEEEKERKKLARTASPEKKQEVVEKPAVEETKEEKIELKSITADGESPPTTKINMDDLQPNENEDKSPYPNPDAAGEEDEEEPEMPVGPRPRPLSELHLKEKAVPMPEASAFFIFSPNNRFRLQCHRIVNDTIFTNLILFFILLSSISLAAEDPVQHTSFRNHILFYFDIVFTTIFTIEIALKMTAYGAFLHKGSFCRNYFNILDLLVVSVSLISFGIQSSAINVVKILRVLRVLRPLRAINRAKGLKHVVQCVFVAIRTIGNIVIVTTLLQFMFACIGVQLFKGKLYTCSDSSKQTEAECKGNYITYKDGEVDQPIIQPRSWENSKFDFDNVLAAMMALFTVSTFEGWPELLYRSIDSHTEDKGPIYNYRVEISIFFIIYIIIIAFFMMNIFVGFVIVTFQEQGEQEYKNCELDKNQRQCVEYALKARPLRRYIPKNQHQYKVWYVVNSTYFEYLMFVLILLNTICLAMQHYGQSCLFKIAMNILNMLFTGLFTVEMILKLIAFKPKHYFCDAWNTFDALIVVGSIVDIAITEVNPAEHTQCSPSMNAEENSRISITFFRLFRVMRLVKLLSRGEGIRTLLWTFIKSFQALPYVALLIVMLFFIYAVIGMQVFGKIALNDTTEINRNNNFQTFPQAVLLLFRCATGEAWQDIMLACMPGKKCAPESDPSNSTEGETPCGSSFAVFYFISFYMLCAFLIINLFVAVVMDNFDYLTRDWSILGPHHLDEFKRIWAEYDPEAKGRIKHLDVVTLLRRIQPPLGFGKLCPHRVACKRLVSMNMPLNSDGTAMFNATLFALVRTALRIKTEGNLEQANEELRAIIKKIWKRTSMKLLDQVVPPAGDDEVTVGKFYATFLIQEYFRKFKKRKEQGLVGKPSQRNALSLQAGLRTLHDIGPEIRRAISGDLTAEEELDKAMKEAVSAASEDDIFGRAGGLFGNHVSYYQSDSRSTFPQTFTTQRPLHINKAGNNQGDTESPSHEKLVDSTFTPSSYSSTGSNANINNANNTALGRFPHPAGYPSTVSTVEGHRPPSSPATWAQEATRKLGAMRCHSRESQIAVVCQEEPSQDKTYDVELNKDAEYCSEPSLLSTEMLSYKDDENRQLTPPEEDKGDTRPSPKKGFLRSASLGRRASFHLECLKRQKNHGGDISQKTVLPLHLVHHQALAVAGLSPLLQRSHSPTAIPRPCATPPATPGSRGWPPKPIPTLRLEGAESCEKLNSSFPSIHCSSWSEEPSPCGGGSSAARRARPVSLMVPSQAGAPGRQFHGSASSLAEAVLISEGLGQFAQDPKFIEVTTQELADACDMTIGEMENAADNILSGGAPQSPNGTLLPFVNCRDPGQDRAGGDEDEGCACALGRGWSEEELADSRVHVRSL

Take `CC(=O)N(CCOc1cccc2ccccc12)CCc1ccc(NS(C)(=O)=O)cc1`: the IC50 in assay [1] worked out at 0.909 µM. With `COc1ccc2c(c1)CN(C(=O)CCN1CCC(Cc3ccccc3)CC1)CCS2`, the IC50 in assay [2] was determined as 3 µM.

`Cc1cc(O)c(C(C)C)cc1CN1CCCCC1`: the IC50 in assay [3] worked out at 3.6 µM. For the compound `O=C1CSC(c2ccccc2Cl)c2cc(Cl)ccc2N1` (stereo unspecified), the IC50 in assay [4] was found to be 0.27 µM. For `CC(/N=C(\NC#N)Nc1ccc(OC(F)F)cc1)C(C)(C)C` (stereo unspecified), in assay [5], the IC50 amounted to 24.1 µM. Regarding `CCC(CC)(CNC(=O)C1CCN(CCc2ccccc2)CC1)c1ccc(F)cc1`, the half-maximal inhibitory concentration (IC50) in [6] was found to be 4.4 µM. Consider `COc1ccc(CCNC(C)COc2c(C)cccc2C)cc1OC` (stereo unspecified), for which the IC50 in assay [7] was 28.5 µM. With `O=c1cc(-c2ccccc2O)oc2cc(O)cc(O)c12`, in assay [8], the half-maximal inhibitory concentration (IC50) turned out to be 45.1 µM. As to `O=C1C=CC[C@H](C[C@@H](O)CCc2ccc(O)cc2)O1`, in assay [9], the IC50 was found to be 3.2 µM. In the case of `COc1ccc2c(c1)c(C1=C(c3c[nH]c4ccccc34)C(=O)NC1=O)cn2CCCN(C)C`, in assay [10], the IC50 amounted to 20 µM. `N#Cc1cc2c(OCC(O)CN3CCN(C(c4ccccc4)c4ccccc4)CC3)cccc2[nH]1` (stereo unspecified): in assay [11], the half-inhibitory concentration (IC50) worked out at 1.1 µM. Take `COc1ccc(CCN(C)CCCOc2ccc(S(=O)(=O)c3c(C(C)C)c4ccccc4n3C)cc2)cc1OC`: the IC50 in assay [12] stood at 0.033 µM; in assay [13] it was 0.024 µM; in [14] it was 0.0041 µM. For the compound `Cc1cc2c(OCC(O)CN3CCN(C(c4ccccc4)c4ccccc4)CC3)cccc2[nH]1` (stereo unspecified), the IC50 in assay [11] was determined as 3.6 µM. In the case of `COc1ccc2c(c1OC)C[N+]1(Cc3ccc(Cl)cc3)CCc3cc4c(cc3C1C2)OCO4` (stereo unspecified), in assay [15], the IC50 came to 11.5 µM.

For the compound `COc1ccc2c(=O)c3c(n(Cc4ccccc4)c2c1)OCC3=O`, the IC50 in [16] amounted to 4 µM. Take `CCN(CC)CC(=O)N1C[C@@H](c2ccc(Cl)cc2)Sc2ccccc21`: the concentration for half-maximal inhibition (IC50) in [17] is 52 µM. Regarding `COc1cccc(/C=C/CN2CCC(=C3c4ccccc4C=Cc4ccccc43)CC2)c1[N+](=O)[O-]`, the IC50 in assay [18] worked out at 0.32 µM; in assay [2] it was 4.91 µM. With `COc1cc(C[C@H](C)[C@@H](C)C(=O)c2ccc(O)c(OC)c2)ccc1O`, in assay [16], the concentration for half-maximal inhibition (IC50) was 7.5 µM. As for `COc1cccc(CCN2CCC(CC(=O)N[C@@H](c3ccc(F)cc3)C(C)C)CC2)c1`, the IC50 was 2.2 µM in [6] and 7 µM in assay [19]. In the case of `CC(C)[C@@H](NC(=O)CC1CCN(CCc2ccccc2)CC1)c1ccc(F)cc1`, in assay [6], the IC50 was 10 µM. `CC(C)[C@@H](NC(=O)NC1CCN(CCc2ccccc2)CC1)c1ccc(F)cc1`: the IC50 in assay [6] is 5 µM. Turning to `CC(C)C(CNC(=O)C1CCN(CCc2ccccc2)CC1)c1ccc(F)cc1` (stereo unspecified), the 50% inhibitory concentration (IC50) in [6] came to 3.9 µM. On the same count and under the same terms, as for `COc1ccccc1CCN1CCC(CC(=O)N[C@@H](c2ccc(F)cc2)C(C)C)CC1`, the figure is 6.8 µM; as for `COCCOc1c(F)cccc1CCN1CCC(CC(=O)N[C@@H](c2ccc(F)cc2)C(C)C)CC1`, 2.1 µM. The same measure, in the same setting: as for `COCCOc1cc(F)ccc1CCN1CCC(CC(=O)N[C@@H](c2ccc(F)cc2)C(C)C)CC1`, the figure is 1.9 µM; as for `COCCOc1ccc(F)cc1CCN1CCC(CC(=O)N[C@@H](c2ccc(F)cc2)C(C)C)CC1`, 3.1 µM; as for `COCCOc1cccc(F)c1CCN1CCC(CC(=O)N[C@@H](c2ccc(F)cc2)C(C)C)CC1`, 3.1 µM. In the case of `COCCOc1ccccc1CCN1CCC(CC(=O)N[C@@H](c2ccc(F)cc2)C(C)C)CC1`, the IC50 in [20] amounted to 38 µM. Consider `CCN1CCC(CC(NC(=O)c2ccc([N+](=O)[O-])cc2)c2ccc(F)cc2)CC1` (stereo unspecified), for which the IC50 in assay [21] is 100 µM.

As for `CC(C)(C)OC(=O)N1CC2CC(CN(C[C@H](O)COc3ccc(C#N)cc3)C2)C1`, the IC50 turned out to be 6 µM in assay [22] and 1.3 µM in assay [23]. Regarding `O=C1COc2c1c(=O)c1ccc(Br)cc1n2Cc1ccccc1F`, in assay [24], the IC50 was 4.9 µM. Regarding `CCNCC#CC(C)(C)OC(=O)C(O)(c1ccccc1)C1CCCCC1` (stereo unspecified), the half-maximal inhibitory concentration (IC50) in assay [25] stood at 27 µM. For the compound `COc1ccc2c(c1OC)[C@@H]1Cc3cc4c(cc3[C@H](C2)N1C)OCO4`, in assay [24], the IC50 stood at 6.6 µM. With `CC1=C(C(=O)OC(C)C)[C@@H](c2cccc3nonc23)C([N+](=O)[O-])=C(C)N1`, the 50% inhibitory concentration (IC50) was determined as 0.2 µM in [26] and 0.001 µM in [27]. For the compound `CC1=C(C(=O)OC(C)C)[C@H](c2cccc3nonc23)C([N+](=O)[O-])=C(C)N1` (mixture of isomers), in assay [26], the IC50 was determined as 0.08 µM.

The values above are taken from ChEMBL document CHEMBL3638030, “IC50 data for the L-type calcium channel extracted from a set of literature articles”.
